1 compound from patent US11357806B2, “Method of isolating sphingolipids from cordyceps and their use” (Macau University of Science and Technology, priority 2015, dated 2022) can be followed below.

Where two headings read alike, the source gives them in different places.

For experiment [1], the system named is Con A-induced splenic lymphocytes. As to the kind of experiment: Con A-induced primary splenocyte proliferation model (MTT, immunosuppressive activity assay). Format: cell-based, ICR mice. The note with it: Mus musculus, Splenic lymphocyte, Con A 2.5 mg/L, 48 h culture, read-out: IC50 (concentration that reduced cell proliferation by 50%). As to the method: (§1) Male ICR mice (Weight, 10 to 22 g) were provided by the Comparative Medicine Center of Yangzhou University. The animal studies were approved by the Animal Ethics Committee of China Pharmaceutical University. The animals were cared for according to the regulations of the Animal Committee.
(§2) ICR mice were killed by cervical dislocation, and the spleens were removed aseptically. Mononuclear cell suspensions were prepared and re-suspended in RPMI 1640 medium (containing 10% FBS). The resulting splenic lymphocytes suspensions (4×10^6 cells/mL) were cultured in 96-well plate (100 μL suspensions each well). In the control group, 100 μL 10% FBS in RPMI1640 was added into each well (five replicates of wells). In the LPS or Con A model group, 100 μL LPS or Con A (2.5 mg/L of final concentration) was added into each well (five replicates of wells). For the positive drug treatment group, 50 μL of LPS or Con A (2.5 mg/L of final concentration) and 50 μL of FTY720 with a set of final concentrations (0.001, 0.003, 0.01, 0.03, 0.1, 0.3, 1, 3 and 10 μM) were added into each well. In the test group, 50 μL of LPS or Con A (2.5 mg/L of final concentration) and 50 μL of the four SPL fractions with a set of final concentrations were added into each well. […] Then the OD490 readings were taken with a microplate reader (Bio Tek, Tigan Street Winooski, Vt., USA). […]

Experiment [2] relates to LPS-induced splenic lymphocytes. In words: LPS-induced primary splenocyte proliferation model (MTT, immunosuppressive activity assay). As to conditions: Mus musculus, Splenic lymphocyte, LPS 2.5 mg/L, 48 h culture, read-out: IC50 (concentration that reduced cell proliferation by 50%). Format: cell-based, ICR mice. As to the method:
as §1, §2

For `CCCCCCCCc1ccc(CCC(N)(CO)CO)cc1` [FTY720], the IC50 in experiment [1] was 0.11 µg/mL; in experiment [1] (value in brackets) it was 310 nM; in experiment [2], 0.15 µg/mL; in experiment [2] (value in brackets) it was 430 nM.
